The values below come from PMC9471048, “The signaling and selectivity of α‐adrenoceptor agonists for the human α2A, α2B and α2C‐adrenoceptors and comparison with human α1 and β‐adrenoceptors” (Pharmacology Research & Perspectives, 2022).

Like-named read-outs stand apart in the source and are kept apart here.

For assay [1], the target named is T1, human α2C‐adrenoceptor (Homo sapiens, UniProt P18825).
T1 sequence (P18825 1-462): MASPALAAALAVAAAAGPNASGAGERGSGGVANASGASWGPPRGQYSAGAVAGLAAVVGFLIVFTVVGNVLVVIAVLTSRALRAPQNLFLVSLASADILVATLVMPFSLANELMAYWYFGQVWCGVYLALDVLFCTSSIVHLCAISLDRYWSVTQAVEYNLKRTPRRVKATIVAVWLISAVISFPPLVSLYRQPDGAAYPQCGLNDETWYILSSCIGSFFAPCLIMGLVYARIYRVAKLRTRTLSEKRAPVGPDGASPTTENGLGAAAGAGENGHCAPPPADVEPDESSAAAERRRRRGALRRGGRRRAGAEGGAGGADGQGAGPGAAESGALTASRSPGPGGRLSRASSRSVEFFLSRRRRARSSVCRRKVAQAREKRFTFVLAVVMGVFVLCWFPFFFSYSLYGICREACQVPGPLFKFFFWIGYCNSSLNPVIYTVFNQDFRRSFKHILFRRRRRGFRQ
Particulars: for % inhibition, CRE‐SPAP (with forskolin): % inhibition from the 3 μM forskolin control, mean ± SEM; for Log EC50 (Gs), CRE‐SPAP (without forskolin): CRE‐SPAP production in the absence of forskolin; for Log efficacy ratio (KD/IC50): log KD from 3H‐rauwolscine binding versus CRE‐SPAP log IC50.

Assay [2] concerns the target T2, human α2A‐adrenoceptor (Homo sapiens, UniProt P08913).
T2 sequence (P08913 1-465): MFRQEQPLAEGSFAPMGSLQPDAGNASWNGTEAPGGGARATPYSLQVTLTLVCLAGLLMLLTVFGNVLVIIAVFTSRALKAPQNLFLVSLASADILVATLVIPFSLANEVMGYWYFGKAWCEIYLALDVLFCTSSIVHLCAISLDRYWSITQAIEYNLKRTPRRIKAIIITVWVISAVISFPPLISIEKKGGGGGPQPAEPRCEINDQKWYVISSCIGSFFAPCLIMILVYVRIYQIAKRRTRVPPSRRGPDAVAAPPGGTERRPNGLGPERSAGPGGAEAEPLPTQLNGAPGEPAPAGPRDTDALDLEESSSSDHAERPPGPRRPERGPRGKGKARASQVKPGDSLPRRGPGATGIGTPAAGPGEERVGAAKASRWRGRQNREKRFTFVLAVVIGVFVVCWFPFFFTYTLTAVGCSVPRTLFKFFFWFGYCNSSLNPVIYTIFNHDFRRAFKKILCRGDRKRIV
In words: 3H‐rauwolscine whole cell binding in CHO‐α2A cells. To be noted: for Selectivity ratio α2A vs α2B (higher affinity for α2A): fold, from KD values, 1 = no selectivity. Also on record: expressed in transfected cells; host or cells: CHO-K1 with CRE-SPAP reporter.

For assay [3], the target named is T2, human α2A‐adrenoceptor. Particulars: for % inhibition, CRE‐SPAP (with forskolin) / Log EC50 (Gs), CRE‐SPAP (without forskolin): CHO‐α2A (cell line 1); for % inhibition, CRE‐SPAP (with forskolin): % inhibition from the 3 μM forskolin control, inhibition only; for Log EC50 (Gs), CRE‐SPAP (without forskolin): absence of forskolin; for Log efficacy ratio (KD/IC50): CHO‐α2A, binding KD / Gi IC50 of CRE‐SPAP.

The target in assay [4] is T1, human α2C‐adrenoceptor. Kind of assay: ERK1/2‐phosphorylation in CHO‐α2C cells. Also on record: expressed in transfected cells; host or cells: CHO-K1 with CRE-SPAP reporter. It counts as cell-based. Particulars: CHO‐α2C cells; for % 10 μM PDBu, ERK1/2‐phosphorylation: maximum response compared to 10 μM PDBu, mean ± SEM; for EC50: given as negative log EC50, mean ± SEM, read-out: Log EC50, ERK1/2‐phosphorylation (converted).

Assay [5] has as its target T1, human α2C‐adrenoceptor. Kind of assay: 3H‐rauwolscine whole cell binding in CHO‐α2C cells. Also on record: expressed in transfected cells; host or cells: CHO-K1 with CRE-SPAP reporter. Particulars: for Kd: 3H‐rauwolscine whole cell binding; for Selectivity ratio α2A vs α2C (higher affinity for α2C) / Selectivity ratio α2B vs α2C (higher affinity for α2C): fold, from KD values, 1 = no selectivity.

In assay [6] the target is T2, human α2A‐adrenoceptor. In words: ERK1/2‐phosphorylation in CHO‐α2A cells. It counts as cell-based. Also on record: expressed in transfected cells; host or cells: CHO-K1 with CRE-SPAP reporter. To be noted: CHO‐α2A; for % 10 μM PDBu, ERK1/2‐phosphorylation: maximum response compared to 10 μM PDBu; for EC50: read-out: Log EC50, ERK1/2‐phosphorylation (converted).
Assay [7] has as its system parent CHO cells (no transfected receptor). Also on record: method as in PMID 34355529. To be noted: non‐α‐mediated mechanism; cited from earlier work.
[8] abbreviates: read-out: Log KD (binding) (converted).
The mark [9] stands for this setting: read-out: Log KD, CHO‐α2A (converted).
Setting [10] is: living cells, negative log KD, mean ± SEM, read-out: Log KD, CHO‐α2C (converted).
Setting [11] is: CHO‐α2C cells, given as negative log KD, mean only (SEM in Table 4), read-out: Log KD (converted).

For `C[C@H](N)[C@H](O)c1cccc(O)c1` [Metaraminol], the figures for the IC50 in assay [1] and in assay [3] were 0.794 µM and 3.16 µM, respectively. In addition, the entries for the “% inhibition, CRE‐SPAP (with forskolin)” value in assay [1] (CHO‐α2C cells) and in assay [3] were 85.5 ± 1.8% and 87.0 ± 1.3%, respectively. Moreover, the “Log EC50 (Gs), CRE‐SPAP (without forskolin)” value (“Log EC50 … (without forskolin)” for short) in assay [1] (CHO‐α2C cells) and in assay [3] was “No response” in each case. Besides, the “Log efficacy ratio (KD/IC50)” value in assay [1] (CHO‐α2C cells) came out at 1.56; in assay [3] it was 1.22. Besides, the “Selectivity ratio α2A vs α2B (higher affinity for α2A)” value in assay [2] stood at 1.5. The Kd in assay [2] (setting [8]) is 52.5 µM; in assay [2] (setting [9]), 52.5 µM; in assay [5] (setting [10]), 28.8 µM; in assay [5] (setting [11]) it was 28.8 µM. Also, the “% 10 μM PDBu, ERK1/2‐phosphorylation” value is reported as 158.8 ± 22.2% in assay [4] and 136.4 ± 13.9% in assay [6]. In addition, the EC50 in assay [4] is 0.158 µM; in assay [6], 0.24 µM. For the same compound, the “Selectivity ratio α2A vs α2C (higher affinity for α2C)” value in assay [5] amounted to 1.8. Also, in assay [5], the “Selectivity ratio α2B vs α2C (higher affinity for α2C)” value was determined as 2.7.
With `CC(CCc1ccc(O)cc1)NCCc1ccc(O)c(O)c1` (stereo not shown) [Dobutamine], the half-maximal inhibitory concentration (IC50) in assay [1] is 20.9 µM. Also, the “Log EC50 … (without forskolin)” value in assay [1] (CHO‐α2C cells) and in assay [3] was “No response” throughout. Moreover, the Kd in assay [2] (setting [8]) is 20.4 µM; in assay [2] (setting [9]), 20.4 µM; in assay [5] (setting [10]), 5.5 µM; in assay [5] (setting [11]) it was 5.5 µM. Further, the “Log IC50 (Gi), CRE‐SPAP (with forskolin)” value in assay [3] (CHO‐α2A (cell line 1, 5830 fmol/mg protein), 3 μM forskolin) was “No response”. Besides, the EC50 in assay [4] was 0.759 µM; in assay [6], 2 µM.
For `CN1C[C@H](C(=O)N[C@]2(C)O[C@@]3(O)[C@@H]4CCCN4C(=O)[C@H](Cc4ccccc4)N3C2=O)C[C@@H]2c3cccc4[nH]cc(c34)C[C@H]21` [Dihydroergotamine], the “ERK1/2‐phosphorylation agonist response in parent cells” value in assay [7] is listed as “stimulate ERK1/2‐phosphorylation agonist responses”.
Regarding `CCNCC(O)c1cccc(O)c1` (stereo not shown) [Etilefrine], the “% inhibition, CRE‐SPAP (with forskolin)” value in assay [1] (CHO‐α2C cells) stood at 86.2 ± 7.2%; in assay [3], 101.3 ± 4.6%. The “Log EC50 … (without forskolin)” value in assay [1] (CHO‐α2C cells) and in assay [3] was “No response” throughout. Besides, the “Log efficacy ratio (KD/IC50)” value is 1.01 in assay [1] (CHO‐α2C cells) and 0.61 in assay [3]. Besides, the IC50 was 12 µM in assay [1] (Log IC50 (Gi), CRE‐SPAP (with forskolin), CHO‐α2C cells, inhibition of 3 μM forskolin‐stimulated CRE‐SPAP production, given as negative log IC50, mean ± SEM) and 47.9 µM in assay [3] (Log IC50 (Gi), CRE‐SPAP (with forskolin), CHO‐α2A (cell line 1, 5830 fmol/mg protein), 3 μM forskolin). Moreover, the Kd is 195 µM in assay [2] (3H‐rauwolscine whole cell binding, ^app: apparent KD, IC50 from extrapolated curve as not all specific binding was inhibited, read-out: Log KD (apparent), CHO‐α2A (converted)); 195 µM in assay [2] (CHO‐α2A, 3H‐rauwolscine whole cell binding, given as negative log KD, read-out: Log KD (binding) (converted)); 123 µM in assay [5] (^app: apparent KD, IC50 from extrapolated curve as not all specific binding was inhibited, read-out: Log KD (apparent), CHO‐α2C (converted)); 123 µM in assay [5] (setting [11]). Also, the “Selectivity ratio α2A vs α2B (higher affinity for α2A)” value in assay [2] was determined as 2.1. Also, the “% 10 μM PDBu, ERK1/2‐phosphorylation” value in assay [4] was found to be 182.2 ± 9.6%; in assay [6], 150.8 ± 10.2%. Moreover, the EC50 in assay [4] is 3.16 µM; in assay [6], 3.24 µM. Moreover, the “Selectivity ratio α2A vs α2C (higher affinity for α2C)” value in assay [5] is recorded as 1.6. In addition, the “Selectivity ratio α2B vs α2C (higher affinity for α2C)” value in assay [5] worked out at 3.4.
